Results on 11 compounds are retold here after patent US5698670A, “Aureobasidins” (priority 1993, dated 1997).

The conditions of series [1]: amide bond, 27-membered ring, PyBroP/DIEA, CH2Cl2.
The test system of series [2] is Candida albicans TIMM0136. Put plainly: MIC by agarose plate dilution method. Type of series: cell-based. The following applies: saburo-dextrose agarose culture, 30° C., 2 days. Here is the method:
(§1) MIC was measured by agarose plate dilution method (cultivated at 30° C. for 2 days) using saburo-dextrose agarose culture (glucose 2 W/V %, polipeptone 1 W/V %, agarose 1.5 W/V %). Control was Aureobasidin A (AbA).

Series [3] deals with Candida albicans TIMM0171. The experiment in a line: MIC by agarose plate dilution method. Type of series: cell-based. The following applies: saburo-dextrose agarose culture, 30° C., 2 days. The procedure:
as §1

The subject of series [4] is Candida glabrata TIMM1062. Put plainly: MIC by agarose plate dilution method. It counts as cell-based. The settings on record: saburo-dextrose agarose culture, 30° C., 2 days. Here is the method:
as §1

Series [5] concerns Candida kefyr TIMM0301. The experiment in a line: MIC by agarose plate dilution method. Type of series: cell-based. The following applies: saburo-dextrose agarose culture, 30° C., 2 days. The procedure:
as §1

In series [6] the test system is Cryptococcus neoformans TIMM0354. Type of series: cell-based. The procedure: as §1
Series [7] relates to Aspergillus fumigatus TIMM2766. Type of series: cell-based. The procedure: as §1
Setting [8] is: Cryptococcus neoformans TIMM0354, saburo-dextrose agarose culture, 30° C., 2 days.
Setting [9] is: Aspergillus fumigatus TIMM2766, saburo-dextrose agarose culture, 30° C., 2 days.

Structures are written as SMILES. ≈ marks a conversion by molar mass, not a printed value. Where two headings read alike, the source gives them in different places. Numbered stars: 1 amine (or outer) side, 2 acyl side, 3 side chain; on linkers, the order of the positions; unused ones are H or OH. Square brackets hold non-standard residues; d marks the D form. Peptide text beside a SMILES is read from it. * marks the point of attachment. X1 = CC[C@@H](C)[C@@H](O[*:1])C(=O)[*:2]; NMeVal(β-OH) = CN[C@H](C(=O)O)C(C)(C)O; NMeF = CN[C@@H](Cc1ccccc1)C(=O)O; aIle = CC[C@@H](C)[C@H](N)C(=O)O; Cha = N[C@@H](CC1CCCCC1)C(=O)O; dNMeV = CN[C@@H](C(=O)O)C(C)C; NMeV = CN[C@H](C(=O)O)C(C)C; dNMeS = CN[C@H](CO)C(=O)O; dNMeA = CN[C@H](C)C(=O)O; Bn = c1ccc(C*)cc1

In series [1] (from H-aIle-MeVal-Leu-βHOMeVal-dHmp-MeVal-Phe-dMeVal-Pro-OH, 1.0 mM, 25.0 °C), `CC[C@@H](C)[C@@H]1NC(=O)[C@@H]2CCCN2C(=O)[C@@H](C(C)C)N(C)C(=O)[C@H](Cc2ccccc2)NC(=O)[C@H](C(C)C)N(C)C(=O)[C@@H]([C@H](C)CC)OC(=O)[C@H](C(C)(C)O)N(C)C(=O)[C@H](CC(C)C)NC(=O)[C@H](C(C)C)N(C)C1=O` yielded a ring closure, isolated yield of 35%.

Turning to `CC[C@@H](C)[C@@H]1NC(=O)[C@@H]2CCCN2C(=O)[C@@H](C)N(C)C(=O)[C@H](Cc2ccc(F)cc2)NC(=O)[C@H](C(C)C)N(C)C(=O)[C@@H]([C@H](C)CC)OC(=O)[C@H](C(C)(C)O)N(C)C(=O)[C@H](CC(C)C)NC(=O)[C@H](C(C)C)N(C)C1=O`, in series [1] (from H-aIle-MeVal-Leu-βHOMeVal-dHmp-MeVal-pFPhe-dMeAla-Pro-OH, 1.0 mM, 25.0 °C), the ring closure, isolated yield came out at 29.8%.

The compound `CC[C@@H](C)[C@@H]1NC(=O)[C@@H]2CCCN2C(=O)[C@@H](C)N(C)C(=O)[C@H](Cc2ccc(OCc3ccccc3)cc2)NC(=O)[C@H](C(C)C)N(C)C(=O)[C@@H]([C@H](C)CC)OC(=O)[C@H](C(C)(C)O)N(C)C(=O)[C@H](CC(C)C)NC(=O)[C@H](C(C)C)N(C)C1=O` yielded a ring closure, isolated yield in series [1] (from H-aIle-MeVal-Leu-βHOMeVal-dHmp-MeVal-Tyr(Bzl)-dMeAla-Pro-OH, 1.0 mM) of 41.5%.

In turn, `CC[C@@H](C)[C@@H]1NC(=O)[C@@H]2CCCN2C(=O)[C@@H](COCc2ccccc2)N(C)C(=O)[C@H](CC2CCCCC2)NC(=O)[C@H](C(C)C)N(C)C(=O)[C@@H]([C@H](C)CC)OC(=O)[C@H](C(C)(C)O)N(C)C(=O)[C@H](CC(C)C)NC(=O)[C@H](C(C)C)N(C)C1=O` had a ring closure, isolated yield in series [1] (from H-aIle-MeVal-Leu-βHOMeVal-dHmp-MeVal-Cha-dMeSer(Bzl)-Pro-OH, 1.0 mM) of 34.3%.

What is called MIC is the lowest concentration that inhibits growth of the organism. A low value points to inhibition by little substance. With `CC[C@@H](C)[C@@H]1NC(=O)[C@@H]2CCCN2C(=O)[C@@H](C)N(C)C(=O)[C@H](Cc2ccccc2)NC(=O)[C@H](C(C)C)N(C)C(=O)[C@@H]([C@H](C)CC)OC(=O)[C@H](C(C)(C)O)N(C)C(=O)[C@H](CC(C)C)NC(=O)[C@H](C(C)C)N(C)C1=O` [Compound 1, cyclo(L -aIle-L -MeVal-L -Leu-L -βHOMeVal-D -Hmp-L -MeVal-L -Phe-D -MeAla-L -Pro)] (cyclo([aIle][NMeV]L[NMeVal(β-OH)][X1][NMeV]F[dNMeA]P)), the ring closure, isolated yield in series [1] (from H-aIle-MeVal-Leu-βHOMeVal-dHmp-MeVal-Phe-dMeAla-Pro-OH, 0.97 mM, 25.0 °C) amounted to 55.5%. Moreover, the MIC in series [2] amounted to 0.05 µg/mL (≈ 0.0488 µM); in series [3], 0.05 µg/mL (≈ 0.0488 µM); in series [4], 0.20 µg/mL (≈ 0.195 µM); in series [5], 0.20 µg/mL (≈ 0.195 µM); in series [6] (setting [8]), 3.12 µg/mL (≈ 3.04 µM).

As to `CC[C@@H](C)[C@@H]1NC(=O)[C@@H]2CCCN2C(=O)[C@@H](C)N(C)C(=O)[C@H](CC2CCCCC2)NC(=O)[C@H](C(C)C)N(C)C(=O)[C@@H]([C@H](C)CC)OC(=O)[C@H](C(C)(C)O)N(C)C(=O)[C@H](CC(C)C)NC(=O)[C@H](C(C)C)N(C)C1=O` [Compound 3, cyclo(L -aIle-L -MeVal-L -Leu-L -βHOMeVal-D -Hmp-L -MeVal-L -Cha-D -MeAla-L -Pro)] (cyclo([aIle][NMeV]L[NMeVal(β-OH)][X1][NMeV][Cha][dNMeA]P)), the ring closure, isolated yield in series [1] (from H-aIle-MeVal-Leu-βHOMeVal-dHmp-MeVal-Cha-dMeAla-Pro-OH, 1.0 mM, 25.0 °C) amounted to 28.6%. Further, the MIC is 0.0125 µg/mL (≈ 0.0121 µM) in series [2]; 0.025 µg/mL (≈ 0.0242 µM) in series [3]; 0.10 µg/mL (≈ 0.097 µM) in series [4]; 0.20 µg/mL (≈ 0.194 µM) in series [5]; 3.12 µg/mL (≈ 3.03 µM) in series [7] (setting [9]); 1.56 to 25 µg/mL in series [7] (TIMM2766). Further, the figures for the MIC in series [6] (setting [8]) and in series [6] (TIMM0354) were 0.10 µg/mL (≈ 0.097 µM) and 0.10 to 0.39 µg/mL, respectively. The “activity for Cryptococcus compared with Aureobasidin A” value in series [6] (in words) is listed as “stronger activity than Aureobasidin A”.

`CC[C@@H](C)[C@@H]1NC(=O)[C@@H]2CCCN2C(=O)[C@@H](C)N(C)C(=O)[C@H](CC(C)C)NC(=O)[C@H](C(C)C)N(C)C(=O)[C@@H]([C@H](C)CC)OC(=O)[C@H](C(C)(C)O)N(C)C(=O)[C@H](CC(C)C)NC(=O)[C@H](C(C)C)N(C)C1=O` [Compound 5, cyclo(L -aIle-L -MeVal-L -Leu-L -βHOMeVal-D -Hmp-L -MeVal-L -Leu-D -MeAla-L -Pro)] (cyclo(L[dNMeA]P[aIle][NMeV]L[NMeVal(β-OH)][X1][NMeV])): the ring closure, isolated yield in series [1] (from H-aIle-MeVal-Leu-βHOMeVal-dHmp-MeVal-Leu-dMeAla-Pro-OH, 1.0 mM, 25.0 °C) stood at 39.4%. In series [6] (TIMM0354), this compound had a minimum inhibitory concentration (MIC) of 0.10 to 0.39 µg/mL.

In series [1] (from H-aIle-MeVal-Leu-βHOMeVal-dHmp-MeVal-Cha-MePhe-Pro-OH?, 1.01 mM, 25.0 °C), `CC[C@@H](C)[C@@H]1NC(=O)[C@@H]2CCCN2C(=O)[C@H](Cc2ccccc2)N(C)C(=O)[C@H](CC2CCCCC2)NC(=O)[C@H](C(C)C)N(C)C(=O)[C@@H]([C@H](C)CC)OC(=O)[C@H](C(C)(C)O)N(C)C(=O)[C@H](CC(C)C)NC(=O)[C@H](C(C)C)N(C)C1=O` [Compound 6, cyclo(L -aIle-L -MeVal-L -Leu-L -βHOMeVal-D -Hmp-L -MeVal-L -Cha-L -MePhe-L -Pro)] (cyclo([aIle][NMeV]L[NMeVal(β-OH)][X1][NMeV][Cha][NMeF]P)) displayed a ring closure, isolated yield of 23.9%. For the same compound, the MIC in series [2] was 0.39 µg/mL (≈ 0.352 µM); in series [3] it was 0.20 µg/mL (≈ 0.181 µM); in series [4], 1.56 µg/mL (≈ 1.41 µM); in series [5], 1.56 µg/mL (≈ 1.41 µM); in series [7] (setting [9]), over 25 µg/mL; in series [6] (setting [8]), 0.20 µg/mL (≈ 0.181 µM). Further, the minimum inhibitory concentration (MIC) in series [6] (TIMM0354) was in the range of 0.10 to 0.39 µg/mL.

In series [1] (from H-aIle-MeVal-Leu-βHOMeVal-dHmp-MeVal-Ser(Bzl)-dMeAla-Pro-OH, 1.0 mM, 25.0 °C), `CC[C@@H](C)[C@@H]1NC(=O)[C@@H]2CCCN2C(=O)[C@@H](C)N(C)C(=O)[C@H](COCc2ccccc2)NC(=O)[C@H](C(C)C)N(C)C(=O)[C@@H]([C@H](C)CC)OC(=O)[C@H](C(C)(C)O)N(C)C(=O)[C@H](CC(C)C)NC(=O)[C@H](C(C)C)N(C)C1=O` [Compound 7, cyclo(L -aIle-L -MeVal-L -Leu-L -βHOMeVal-D -Hmp-L -MeVal-L -Ser(Bzl)-D -MeAla-L -Pro)] (cyclo(L[NMeVal(β-OH)][X1][NMeV]S(Bn)[dNMeA]P[aIle][NMeV])) returned a ring closure, isolated yield of 45.2%. In series [6] (TIMM0354), this compound showed an MIC of 0.10 to 0.39 µg/mL.

As to `CC[C@@H](C)[C@@H]1NC(=O)[C@@H]2CCCN2C(=O)[C@@H](C(C)C)N(C)C(=O)[C@H](CC2CCCCC2)NC(=O)[C@H](C(C)C)N(C)C(=O)[C@@H]([C@H](C)CC)OC(=O)[C@H](C(C)(C)O)N(C)C(=O)[C@H](CC(C)C)NC(=O)[C@H](C(C)C)N(C)C1=O` [Compound 8, cyclo(L -aIle-L -MeVal-L -Leu-L -βHOMeVal-D -Hmp-L -MeVal-L -Cha-D -MeVal-L -Pro)] (cyclo([aIle][NMeV]L[NMeVal(β-OH)][X1][NMeV][Cha][dNMeV]P)), the ring closure, isolated yield in series [1] (from H-aIle-MeVal-Leu-βHOMeVal-dHmp-MeVal-Cha-dMeVal-Pro-OH, 1.0 mM) was found to be 20.5%. The MIC was 0.10 µg/mL (≈ 0.0944 µM) in series [2]; 0.05 µg/mL (≈ 0.0472 µM) in series [3]; 0.78 µg/mL (≈ 0.736 µM) in series [4]; 0.78 µg/mL (≈ 0.736 µM) in series [5]; over 25 µg/mL in series [7] (setting [9]); 0.39 µg/mL (≈ 0.368 µM) in series [6] (setting [8]). In series [6] (TIMM0354), this compound returned an MIC of 0.10 to 0.39 µg/mL.

As to `CC[C@@H](C)[C@@H]1NC(=O)[C@@H]2CCCN2C(=O)[C@@H](CO)N(C)C(=O)[C@H](CC2CCCCC2)NC(=O)[C@H](C(C)C)N(C)C(=O)[C@@H]([C@H](C)CC)OC(=O)[C@H](C(C)(C)O)N(C)C(=O)[C@H](CC(C)C)NC(=O)[C@H](C(C)C)N(C)C1=O` [Compound 9, cyclo(L -aIle-L -MeVal-L -Leu-L -βHOMeVal-D -Hmp-L -MeVal-L -Cha-D -MeSer-L -Pro)] (cyclo([aIle][NMeV]L[NMeVal(β-OH)][X1][NMeV][Cha][dNMeS]P)), the minimal inhibitory concentration (MIC) in series [2] was 0.20 µg/mL (≈ 0.191 µM); in series [3], 0.20 µg/mL (≈ 0.191 µM); in series [4] it was 0.78 µg/mL (≈ 0.745 µM); in series [5], 0.78 µg/mL (≈ 0.745 µM); in series [7] (setting [9]) it was over 25 µg/mL; in series [6] (setting [8]) it was 0.20 µg/mL (≈ 0.191 µM). This compound also registered an MIC in series [6] (TIMM0354) of 0.10 to 0.39 µg/mL.
